Assay results as given in patent US20220370440A1 (Lead Discovery Center GmbH, priority 2018, published 2022).

Experiments:
H1975 = H1975 CellTiter-Glo; assay type: cell-based; settings: Homo sapiens, NCI-H1975; 72 h compound incubation; read-out: H1975 CTG IC50
Method in brief: (§1)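 Seed cells; incubate 24 h at 37° C., 5% CO2; add compound in DMSO over a concentration range; incubate 72 h; add CellTiter-Glo reagent, stabilise 10 min at room temperature; read luminescence; fit IC50.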

EGFR T790ML858R = EGFR T790ML858R (Homo sapiens, UniProt P00533, L858R/T790M); assay: EGFR T790ML858R Lance assay; assay type: biochemical
Sequence of EGFR T790ML858R (P00533 25-1210 T790M/L858R): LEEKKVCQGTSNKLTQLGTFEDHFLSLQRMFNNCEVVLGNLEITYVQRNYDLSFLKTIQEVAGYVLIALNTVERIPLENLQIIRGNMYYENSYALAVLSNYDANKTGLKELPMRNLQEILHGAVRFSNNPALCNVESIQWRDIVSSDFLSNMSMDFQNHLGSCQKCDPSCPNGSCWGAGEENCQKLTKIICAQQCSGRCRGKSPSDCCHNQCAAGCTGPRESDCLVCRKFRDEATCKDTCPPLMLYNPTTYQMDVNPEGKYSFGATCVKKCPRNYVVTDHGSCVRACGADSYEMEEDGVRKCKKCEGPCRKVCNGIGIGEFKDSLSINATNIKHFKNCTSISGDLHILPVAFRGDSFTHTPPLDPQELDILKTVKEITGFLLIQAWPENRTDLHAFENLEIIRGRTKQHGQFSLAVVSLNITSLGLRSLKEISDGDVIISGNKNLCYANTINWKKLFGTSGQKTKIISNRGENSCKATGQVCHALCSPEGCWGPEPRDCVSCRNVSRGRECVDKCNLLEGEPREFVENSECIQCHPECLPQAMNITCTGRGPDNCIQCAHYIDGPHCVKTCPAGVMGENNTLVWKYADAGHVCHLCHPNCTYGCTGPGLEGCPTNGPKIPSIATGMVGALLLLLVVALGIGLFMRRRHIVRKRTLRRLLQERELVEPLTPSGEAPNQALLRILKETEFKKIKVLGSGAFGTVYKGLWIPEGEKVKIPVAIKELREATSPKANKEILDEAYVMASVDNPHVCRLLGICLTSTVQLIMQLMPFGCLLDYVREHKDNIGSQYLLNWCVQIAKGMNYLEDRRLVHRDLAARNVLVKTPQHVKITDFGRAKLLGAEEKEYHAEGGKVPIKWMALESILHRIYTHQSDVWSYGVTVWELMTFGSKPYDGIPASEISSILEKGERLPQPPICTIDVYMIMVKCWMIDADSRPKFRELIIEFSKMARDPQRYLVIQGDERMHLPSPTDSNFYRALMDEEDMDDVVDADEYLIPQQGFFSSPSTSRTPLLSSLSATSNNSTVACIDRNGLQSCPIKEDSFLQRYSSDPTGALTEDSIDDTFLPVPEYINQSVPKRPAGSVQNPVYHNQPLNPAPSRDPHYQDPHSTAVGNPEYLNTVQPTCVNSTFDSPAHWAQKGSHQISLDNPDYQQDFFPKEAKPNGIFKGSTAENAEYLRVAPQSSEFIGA
Description: (§2) Inhibition is indicated as […] [nM] (“−”=not measured). Compounds having an activity designated as “A” provided an IC50≤100 nM; compounds having an activity designated as “B” provided an 100 nM<IC50≤500 nM; compounds having an activity designated as “C” provided an 500 nM<IC50≤1000 nM; compounds having an activity designated as “D” provided an 1000 nM<IC50≤100000 nM; and compounds having an activity designated as “E” provided an IC50>10000 nM.

[1] = target: EGFR Exon 20 INSNPH Ba/F3 (Homo sapiens, UniProt P00533, DUP771-773, cells depend on it); assay: EGFR Exon 20 INSNPH Ba/F3 CellTiter-Glo; assay type: cell-based; settings: CellTiter-Glo, 72 h, read-out: EGFR Exon 20 INSNPH Ba/F3 CTG IC50
Sequence of EGFR Exon 20 INSNPH Ba/F3 (P00533 with tags, fused parts or gaps DUP771-773): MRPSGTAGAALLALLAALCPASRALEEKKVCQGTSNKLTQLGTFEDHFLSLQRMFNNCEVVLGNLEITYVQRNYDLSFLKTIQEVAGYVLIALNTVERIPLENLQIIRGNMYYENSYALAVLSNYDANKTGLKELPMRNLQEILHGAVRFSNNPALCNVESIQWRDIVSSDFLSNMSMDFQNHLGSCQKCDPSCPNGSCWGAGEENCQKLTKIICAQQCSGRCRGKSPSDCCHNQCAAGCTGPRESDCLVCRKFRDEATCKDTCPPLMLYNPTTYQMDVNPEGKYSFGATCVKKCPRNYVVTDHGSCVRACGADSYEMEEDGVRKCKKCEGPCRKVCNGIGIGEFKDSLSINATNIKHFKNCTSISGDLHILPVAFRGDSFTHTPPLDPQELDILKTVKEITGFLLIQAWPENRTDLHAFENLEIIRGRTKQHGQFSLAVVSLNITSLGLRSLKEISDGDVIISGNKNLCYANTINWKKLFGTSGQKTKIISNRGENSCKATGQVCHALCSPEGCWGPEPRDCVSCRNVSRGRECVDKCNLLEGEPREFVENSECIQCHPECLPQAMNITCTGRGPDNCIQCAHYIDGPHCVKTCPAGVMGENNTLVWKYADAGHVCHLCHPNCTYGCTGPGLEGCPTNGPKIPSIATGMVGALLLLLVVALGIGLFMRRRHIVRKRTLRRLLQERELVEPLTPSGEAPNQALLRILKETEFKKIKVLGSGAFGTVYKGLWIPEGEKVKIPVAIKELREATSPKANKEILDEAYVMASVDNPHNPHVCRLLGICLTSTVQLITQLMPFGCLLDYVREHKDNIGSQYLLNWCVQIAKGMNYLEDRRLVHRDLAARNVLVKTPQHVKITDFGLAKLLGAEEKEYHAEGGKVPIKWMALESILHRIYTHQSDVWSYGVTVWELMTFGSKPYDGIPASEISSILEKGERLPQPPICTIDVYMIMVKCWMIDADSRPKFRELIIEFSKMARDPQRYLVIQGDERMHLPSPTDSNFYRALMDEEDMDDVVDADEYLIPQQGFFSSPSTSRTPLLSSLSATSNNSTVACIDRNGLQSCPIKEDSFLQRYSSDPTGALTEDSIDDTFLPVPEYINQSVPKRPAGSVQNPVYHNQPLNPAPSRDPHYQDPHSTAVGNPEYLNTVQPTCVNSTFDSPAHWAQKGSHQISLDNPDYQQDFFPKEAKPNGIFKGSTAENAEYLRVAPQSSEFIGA
Method in brief: (§3)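 Ba/F3 cells dependent on the mutant kinase, seeded and grown 24 h, then treated with compound for 72 h at 37 °C, 5% CO2. Viability by CellTiter-Glo ATP luminescence versus DMSO and 10 μM staurosporine controls; IC50 from dose-response fit, plates accepted at Z′ ≥0.5; bins A ≤100 nM to E >10000 nM.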

EGFR wt = EGFR wt (Homo sapiens, UniProt P00533); assay: EGFR wt Lance assay; assay type: biochemical
Description: as §2

[2] = Metabolic stability in mouse liver microsomes without cofactor NADPH; assay type: in vitro ADME; settings: 3 μM test compound, mouse liver microsomes, without NADPH, 50 min, 37° C., LC-MS/MS
Method in brief: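 Cofactor-free incubation: no NADPH added to mouse liver microsomes, with compound at 3 μM and 37° C. Remaining parent was quantified by LC-MS/MS at time points up to 50 minutes to track depletion.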

A431 = A431 CellTiter-Glo; assay type: cell-based; settings: Homo sapiens, A-431; 72 h compound incubation; read-out: A431 CTG IC50
Method in brief: as §1

HER2 INS YVMA = target: T1, HER2 INS YVMA (Homo sapiens, UniProt P04626, INS775YVMA); assay: Lance Kinase Activity Assay, HER2 INS YVMA (Her2 Exon 20 INSYVMA Lance); assay type: biochemical; settings: biochemical Lance assay
T1 construct: purchased DPF
T1 sequence (P04626 with tags, fused parts or gaps INS775YVMA): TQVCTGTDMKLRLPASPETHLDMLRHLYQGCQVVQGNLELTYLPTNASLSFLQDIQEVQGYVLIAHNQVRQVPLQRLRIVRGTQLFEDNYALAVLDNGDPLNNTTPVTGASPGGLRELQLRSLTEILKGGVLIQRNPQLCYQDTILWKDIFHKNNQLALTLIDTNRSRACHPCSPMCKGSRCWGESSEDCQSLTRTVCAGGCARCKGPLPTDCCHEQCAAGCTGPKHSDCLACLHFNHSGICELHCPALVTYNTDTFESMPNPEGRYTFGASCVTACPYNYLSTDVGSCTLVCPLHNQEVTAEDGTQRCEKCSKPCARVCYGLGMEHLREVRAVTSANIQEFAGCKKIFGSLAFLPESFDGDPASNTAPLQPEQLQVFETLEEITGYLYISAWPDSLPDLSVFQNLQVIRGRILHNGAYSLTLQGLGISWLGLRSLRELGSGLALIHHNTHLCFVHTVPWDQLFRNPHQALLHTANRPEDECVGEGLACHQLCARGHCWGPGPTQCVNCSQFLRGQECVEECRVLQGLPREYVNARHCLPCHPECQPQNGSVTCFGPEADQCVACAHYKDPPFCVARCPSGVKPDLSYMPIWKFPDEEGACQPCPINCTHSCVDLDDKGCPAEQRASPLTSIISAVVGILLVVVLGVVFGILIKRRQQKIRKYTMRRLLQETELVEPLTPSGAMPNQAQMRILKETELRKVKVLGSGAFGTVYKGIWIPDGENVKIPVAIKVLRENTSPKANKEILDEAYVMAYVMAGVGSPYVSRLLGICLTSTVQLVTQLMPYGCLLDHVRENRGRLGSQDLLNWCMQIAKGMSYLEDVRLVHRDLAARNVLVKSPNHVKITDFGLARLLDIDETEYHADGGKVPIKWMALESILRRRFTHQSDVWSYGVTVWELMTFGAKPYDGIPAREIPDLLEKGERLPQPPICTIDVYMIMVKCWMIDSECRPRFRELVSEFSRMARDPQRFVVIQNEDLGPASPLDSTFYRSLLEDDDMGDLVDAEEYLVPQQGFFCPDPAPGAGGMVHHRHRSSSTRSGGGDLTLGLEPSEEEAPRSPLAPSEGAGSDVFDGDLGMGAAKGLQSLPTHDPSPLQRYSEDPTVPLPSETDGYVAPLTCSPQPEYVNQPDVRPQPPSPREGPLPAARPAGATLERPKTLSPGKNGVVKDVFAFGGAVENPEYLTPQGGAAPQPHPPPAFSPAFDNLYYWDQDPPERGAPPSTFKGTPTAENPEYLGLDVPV
Method in brief: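 IC50 was fitted to sigmoidal curves of TR-FRET signal (665 and 615 nm emission after 340 nm excitation) from an Eu anti-phospho antibody binding the phosphorylated ULight peptide. The ATP-started reaction ran 1 h at RT and was then quenched with 10 mM EDTA plus antibody for a further 1 h. Compounds were tested as 8-point, 3-fold dilutions.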

[3] = target: Her2 Exon 20 INSYVMA Ba/F3 (Homo sapiens, UniProt P04626, DUP772-775, cells depend on it); assay: Her2 Exon 20 INSYVMA Ba/F3 CellTiter-Glo; assay type: cell-based; settings: CellTiter-Glo, 72 h, read-out: Her2 Exon 20 INSYVMA Ba/F3 CTG IC50
Sequence of Her2 Exon 20 INSYVMA Ba/F3 (P04626 with tags, fused parts or gaps DUP772-775): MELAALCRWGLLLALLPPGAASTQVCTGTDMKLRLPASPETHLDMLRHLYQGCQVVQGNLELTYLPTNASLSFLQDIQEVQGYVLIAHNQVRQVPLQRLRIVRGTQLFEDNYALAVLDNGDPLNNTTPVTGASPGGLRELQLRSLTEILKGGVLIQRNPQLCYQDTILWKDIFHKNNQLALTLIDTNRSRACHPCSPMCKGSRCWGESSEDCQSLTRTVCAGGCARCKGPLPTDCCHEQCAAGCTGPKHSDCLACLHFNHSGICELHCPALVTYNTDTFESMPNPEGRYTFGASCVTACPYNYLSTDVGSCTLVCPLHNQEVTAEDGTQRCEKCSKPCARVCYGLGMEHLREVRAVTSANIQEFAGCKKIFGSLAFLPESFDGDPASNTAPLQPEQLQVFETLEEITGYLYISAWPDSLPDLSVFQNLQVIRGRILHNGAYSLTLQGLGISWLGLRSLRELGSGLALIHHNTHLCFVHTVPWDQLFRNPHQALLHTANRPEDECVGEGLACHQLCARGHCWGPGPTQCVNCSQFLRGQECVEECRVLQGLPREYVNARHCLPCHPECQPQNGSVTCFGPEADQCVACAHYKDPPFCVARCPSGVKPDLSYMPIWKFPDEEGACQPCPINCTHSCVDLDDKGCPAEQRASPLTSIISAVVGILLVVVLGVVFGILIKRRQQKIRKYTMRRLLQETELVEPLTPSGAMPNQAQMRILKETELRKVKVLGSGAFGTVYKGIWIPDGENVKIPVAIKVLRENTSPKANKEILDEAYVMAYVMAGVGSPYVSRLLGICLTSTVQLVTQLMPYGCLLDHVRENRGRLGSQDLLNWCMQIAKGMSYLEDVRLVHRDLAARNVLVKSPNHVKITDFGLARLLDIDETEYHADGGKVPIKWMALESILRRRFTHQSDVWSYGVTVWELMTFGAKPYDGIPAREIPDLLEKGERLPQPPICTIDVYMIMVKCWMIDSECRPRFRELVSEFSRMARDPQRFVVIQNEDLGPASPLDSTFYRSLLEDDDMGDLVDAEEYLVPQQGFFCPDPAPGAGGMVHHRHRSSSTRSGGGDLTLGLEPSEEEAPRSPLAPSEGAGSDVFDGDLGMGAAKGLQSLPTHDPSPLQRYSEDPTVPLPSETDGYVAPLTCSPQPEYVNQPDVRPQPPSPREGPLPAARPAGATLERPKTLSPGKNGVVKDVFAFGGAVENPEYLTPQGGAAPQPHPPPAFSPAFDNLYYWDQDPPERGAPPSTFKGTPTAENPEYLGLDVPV
Method in brief: as §3

| IC50 (H1975) [µM] | IC50 (EGFR T790ML858R) [µM] | GI50 [1] [µM] | IC50 (EGFR wt) [µM] | Stability in presence of mouse liver microsomes without cofactor NADPH [% remaining after 50 min] [2] [% remaining after 50 min] | IC50 (A431) [µM] | IC50 (HER2 INS YVMA) [µM] | GI50 [3] [µM] | Compound |
| --- | --- | --- | --- | --- | --- | --- | --- | --- |
| 0.1 to 0.5 | ≤ 0.1 | 0.1 to 0.5 | ≤ 0.1 | >99 | 1 to 100 | ≤ 0.1 | 0.1 to 0.5 | C=CC(=O)Nc1cc(-c2c(-c3ccc(N4CCN(CC)CC4)cc3)[nH]c3ncc(C(=O)OC(C)C)cc23)ccc1C [Example 157, isopropyl 3-(3-acrylamido-4-methylphenyl)-2-(4-(4-ethylpiperazin-1-yl)phenyl)-1H-pyrrolo[2,3-b]pyridine-5-carboxylate] |
| 0.1 to 0.5 | ≤ 0.1 | 1 to 10 | ≤ 0.1 | >99 | 1 to 100 | ≤ 0.1 | 1 to 10 | C=CC(=O)N1CCCc2ccc(-c3c(-c4cccc(OCCN(C)C)c4)[nH]c4nccc(Cl)c34)cc21 [Example 88, 1-(7-(4-chloro-2-(3-(2-(dimethylamino)ethoxy)phenyl)-1H-pyrrolo[2,3-b]pyridin-3-yl)-3,4-dihydroquinolin-1(2H)-yl)prop-2-en-1-one] |
| 0.1 to 0.5 | ≤ 0.1 | 0.1 to 0.5 | ≤ 0.1 | >99 | 1 to 100 | ≤ 0.1 | 0.1 to 0.5 | C=CC(=O)Nc1cc(-c2c(-c3ccc(CN(C)C)cc3)[nH]c3ncc(C(=O)OC(C)C)cc23)cc(F)c1C [Example 177, isopropyl 3-(3-acrylamido-5-fluoro-4-methylphenyl)-2-(4-((dimethylamino)methyl)phenyl)-1H-pyrrolo[2,3-b]pyridine-5-carboxylate] |
| ≤ 0.1 | ≤ 0.1 | 0.1 to 0.5 | ≤ 0.1 | >99 | 1 to 100 | ≤ 0.1 | 0.1 to 0.5 | C=CC(=O)Nc1cc(-c2c(-c3ccc(N4CCN(C)CC4)cc3)[nH]c3ncc(C(=O)OC4CC4)cc23)ccc1C [Example 138, cyclopropyl 3-(3-acrylamido-4-methylphenyl)-2-(4-(4-methylpiperazin-1-yl)phenyl)-1H-pyrrolo[2,3-b]pyridine-5-carboxylate] |
| ≤ 0.1 | ≤ 0.1 | 0.1 to 0.5 | ≤ 0.1 | 86 | 0.5 to 1 | ≤ 0.1 | 0.1 to 0.5 | C=CC(=O)N1CCc2ccc(-c3c(-c4ccc(CN5CCN(C)CC5)cc4)[nH]c4nccc(OCC)c34)cc21 [Example 108, 1-(6-(4-ethoxy-2-(4-((4-methylpiperazin-1-yl)methyl)phenyl)-1H-pyrrolo[2,3-b]pyridin-3-yl)indolin-1-yl)prop-2-en-1-one] |
| 0.1 to 0.5 | ≤ 0.1 | 1 to 10 | 0.1 to 0.5 | >99 | 1 to 100 | 0.5 to 1 | 1 to 10 | C=CC(=O)Nc1cc(-c2c(-c3ccnc(N4CCOCC4)c3)[nH]c3ncccc23)ccc1C [Example 80, N-(2-methyl-5-(2-(2-morpholinopyridin-4-yl)-1H-pyrrolo[2,3-b]pyridin-3-yl)phenyl)acrylamide] |

Continued, molecule first:

| Compound | IC50 (H1975) [µM] | IC50 (EGFR T790ML858R) [µM] | GI50 [1] [µM] | IC50 (EGFR wt) [µM] | Stability in presence of mouse liver microsomes without cofactor NADPH [% remaining after 50 min] [2] [% remaining after 50 min] | IC50 (A431) [µM] | IC50 (HER2 INS YVMA) [µM] | GI50 [3] [µM] |
| --- | --- | --- | --- | --- | --- | --- | --- | --- |
| C=CC(=O)Nc1cc(-c2c(-c3ccc(N4CCN(C(C)C)CC4)cc3)[nH]c3nccc(Cl)c23)ccc1C [Example 41, N-(5-(4-chloro-2-(4-(4-isopropylpiperazin-1-yl)phenyl)-1H-pyrrolo[2,3-b]pyridin-3-yl)-2-methylphenyl)acrylamide] | ≤ 0.1 | ≤ 0.1 | ≤ 0.1 | ≤ 0.1 | >99 | 0.1 to 0.5 | ≤ 0.1 | ≤ 0.1 |
| C=CC(=O)N1CCCc2ccc(-c3c(-c4ccc(OCCN(C)C)cc4)[nH]c4nccc(Cl)c34)cc21 [Example 92, 1-(7-(4-chloro-2-(4-(2-(dimethylamino)ethoxy)phenyl)-1H-pyrrolo[2,3-b]pyridin-3-yl)-3,4-dihydroquinolin-1(2H)-yl)prop-2-en-1-one] | 0.5 to 1 | ≤ 0.1 | 1 to 10 | ≤ 0.1 | >99 | 1 to 100 | ≤ 0.1 | 0.5 to 1 |
| C=CC(=O)Nc1cc(-c2c(-c3cccc(OCCN4CCCC4)c3)[nH]c3nccc(Cl)c23)ccc1C [Example 37, N-(5-(4-chloro-2-(3-(2-(pyrrolidin-1-yl)ethoxy)phenyl)-1H-pyrrolo[2,3-b]pyridin-3-yl)-2-methylphenyl)acrylamide] | ≤ 0.1 | ≤ 0.1 | 0.1 to 0.5 | ≤ 0.1 | >99 | 0.1 to 0.5 | ≤ 0.1 | 0.1 to 0.5 |
| C=CC(=O)N1CCCc2ccc(-c3c(-c4cccc(CN5CCN(C)CC5)c4)[nH]c4nccc(Cl)c34)cc21 [Example 95, 1-(7-(4-chloro-2-(3-((4-methylpiperazin-1-yl)methyl)phenyl)-1H-pyrrolo[2,3-b]pyridin-3-yl)-3,4-dihydroquinolin-1(2H)-yl)prop-2-en-1-one] | 0.5 to 1 | ≤ 0.1 | 1 to 10 | ≤ 0.1 | >99 | 1 to 100 | ≤ 0.1 | 1 to 10 |
| C=CC(=O)N1CCc2ccc(-c3c(-c4ccc(OCCCN(C)C)cc4)[nH]c4nccc(Cl)c34)cc21 [Example 71, 1-(6-(4-chloro-2-(4-(3-(dimethylamino)propoxy)phenyl)-1H-pyrrolo[2,3-b]pyridin-3-yl)indolin-1-yl)prop-2-en-1-one] | 0.1 to 0.5 | ≤ 0.1 | 0.5 to 1 | ≤ 0.1 | >99 | 0.5 to 1 | ≤ 0.1 | 0.1 to 0.5 |
| C=CC(=O)Nc1cc(-c2c(-c3ccc(N4CCN(C)CC4)nc3)[nH]c3nccc(Cl)c23)ccc1C [Example 19, N-(5-(4-chloro-2-(6-(4-methylpiperazin-1-yl)pyridin-3-yl)-1H-pyrrolo[2,3-b]pyridin-3-yl)-2-methylphenyl)acrylamide] | 0.1 to 0.5 | ≤ 0.1 | 0.5 to 1 | ≤ 0.1 | >99 | 1 to 100 | 0.1 to 0.5 | 0.5 to 1 |
| C=CC(=O)Nc1cc(-c2c(-c3cccc(CN(C)C)c3)[nH]c3ncc(C(=O)OC(C)C)cc23)ccc1C [Example 187, isopropyl 3-(3-acrylamido-4-methylphenyl)-2-(3-((dimethylamino)methyl)phenyl)-1H-pyrrolo[2,3-b]pyridine-5-carboxylate] | 0.1 to 0.5 | ≤ 0.1 | 0.1 to 0.5 | ≤ 0.1 | >99 | 1 to 100 | ≤ 0.1 | 0.1 to 0.5 |
| C=CC(=O)Nc1cc(-c2c(-c3ccc(CN4CCN(C)CC4)cc3)[nH]c3ncc(C(=O)OC(C)C)cc23)ccc1C [Example 160, isopropyl 3-(3-acrylamido-4-methylphenyl)-2-(4-((4-methylpiperazin-1-yl)methyl)phenyl)-1H-pyrrolo[2,3-b]pyridine-5-carboxylate] | 0.1 to 0.5 | ≤ 0.1 | 0.1 to 0.5 | ≤ 0.1 | >99 | 1 to 100 | ≤ 0.1 | 0.1 to 0.5 |
